According to patent US10220033B2, “Substituted benzoxazepine for cancer therapy” (University of Cape Town, priority 2014, dated 2019):
Where two headings read alike, the source gives them in different places.

Legend:
cancer cell lines = assay: MTT cell viability, summary statements over panels of cancer cell lines; format: cell-based; settings: CaSki and HeLa (Tables 2 and 3); read-out: IC50 values (cancer cell-killing effects)
Description: (§1) Cells were plated in 96-well plates and treated with varying concentrations of a test compound for 48 hours, after which MTT dye, 3-(4,5-dimethylthiazol-2-yl)-2,5-diphenyltetrazolium bromide (Sigma), was added, and crystals solubilised 4 hours later using Solubilisation Reagent (10% SLS in 0.01 M HCl). Absorbencies were measured at 595 nm the following day using a BioTek microplate spectrophotometer (Winooski, Vt., USA) and IC50 curves were generated using GraphPad Prism.

[1] = tested on: HeLa cancer cells and FG0 non-cancer cells; assay: Cell proliferation monitored using the MTT assay (FIGS. 6 and 7); format: cell-based; settings: increasing concentrations; HeLa and FG0 (FIGS. 6 and 7)
[2] = tested on: NFAT transcriptional activity in NFAT-transfected HeLa cells; assay: NFAT luciferase reporter assay; format: cell-based; settings: stimulated with TPA and ionomycin (FIGS. 16-20)
Description: To assay for NFAT luciferase activity, 30 000 HeLa cells were plated per well in 24-well plates, and transfected with 50 ng GFP-NFAT plasmid (Addgene plasmid #24219, gift of Jerry Crabtree (Beals C R, Clipstone N A, Ho S N, Crabtree G R. Nuclear localization of NF-ATc by a calcineurin-dependent, cyclosporin-sensitive intramolecular interaction. Genes Dev 1997 Apr. 1; 11(7):824-34)), 50 ng NFAT-luciferase (Addgene plasmid #10959, gift of Toren Finkel (Ichida M, Finkel T. Ras regulates NFAT3 activity in cardiac myocytes. J Biol Chem 2001 Feb. 2; 276(5):3524-30)), and 5 ng pRL-TK, using 0.4 μl Genecellin™ Transfection Reagent (Celtic Molecular Diagnostics, South Africa). The NFAT-luciferase reporter plasmid contains three tandem repeats of a 30 bp fragment of the IL-2 promoter known to bind NFAT. The following day cells were treated with 10 or 15 μM Compound A and after an overnight incubation, stimulated with 100 nM TPA (Sigma) and 1.3 μM Ionomycin (Santa Cruz Biotechnology, Santa Cruz, Calif., USA) for 5 hours, following which luciferase activity was measured.
An assay for nuclear NFAT following ionomycin and Compound A treatment was carried out, using an NFAT-luciferase reporter that is activated by nuclear NFAT. The phorbol ester TPA was used to co-stimulate NFAT, as it has been shown previously that TPA and ionomycin elicit synergistic stimulation of NFAT luciferase activity (Northrop J P, Ullman K S, Crabtree G R. Characterization of the nuclear and cytoplasmic components of the lymphoid-specific nuclear factor of activated T cells (NF-AT) complex. J Biol Chem 1993 Feb. 5; 268(4):2917-23).

[3] = tested on: HeLa cervical cancer cell line; assay: MTT assay for cell viability, IC50 determination; format: cell-based; settings: Homo sapiens, HeLa, HeLa, read-out: IC50
Description: as §1

[4] = tested on: CaSki cervical cancer cell line; assay: MTT assay for cell viability, IC50 determination; format: cell-based; settings: Homo sapiens, Ca-Ski, read-out: IC50
Description: as §1

[5] = tested on: FG0 normal skin fibroblasts (non-cancer); assay: MTT assay for cell viability, IC50 determination; format: cell-based; settings: Skin fibroblast, 48 hours
Description: as §1

[6] = tested on: PARP cleavage in CaSki cells; assay: PARP cleavage analysis by Western Blot; format: cell-based; settings: IC50 and twice the IC50 (FIG. 5), varying concentrations 12 hours (FIG. 26)
Description: CaSki cells were treated with varying concentrations of Compound A for 12 hours, following which cells and cell floaters were harvested using RIPA buffer (10 mM Tris-Cl, pH 7.4, 150 mM NaCl, 1% sodium deoxycholate, 0.1% SDS, 1% Triton X-100, 1× complete protease inhibitor cocktail (Roche, Mannheim, Germany)) and Western Blot analysis performed, using a rabbit anti-Parp1/2 (H-250) antibody (sc-7150).

[7] = tested on: p65 nuclear import (Kpnβ1 cargo protein); assay: Percentage of nuclear and cytoplasmic p65 (FIG. 4); format: cell-based
[8] = tested on: DMB normal skin fibroblasts (non-cancer); assay: MTT assay for cell viability, IC50 determination; format: cell-based; settings: Skin fibroblast; DMB; compound in salt form
Description: as §1

[9] = tested on: KYSE150 oesophageal cancer cell line; assay: MTT assay for cell viability, IC50 determination; format: cell-based; settings: Homo sapiens, KYSE-150; Kyse150; compound in salt form
Description: as §1

[10] = MTT assay for cell viability, IC50 determination; format: cell-based; settings: Homo sapiens, MCF-12A; MCF12A; compound in salt form
Description: as §1

[11] = tested on: SVWI38 transformed cell line; assay: MTT assay for cell viability, IC50 determination; format: cell-based; settings: SVWI38; compound in salt form
Description: as §1

[12] = tested on: EPC2 (EPC2-hTERT normal immortalised oesophageal epithelial cells); assay: MTT assay for cell viability, IC50 determination; format: cell-based; settings: Homo sapiens, compound in salt form
Description: as §1

[13] = tested on: MCF7 breast cancer cell line; assay: MTT assay for cell viability, IC50 determination; format: cell-based; settings: Homo sapiens, compound in salt form
Description: as §1

[14] = tested on: WI38 non-cancer cell line; assay: MTT assay for cell viability, IC50 determination; format: cell-based; settings: Homo sapiens, WI-38; WI38; compound in salt form
Description: as §1

[15] = tested on: MDA-MB-231 breast cancer cell line; assay: MTT assay for cell viability, IC50 determination; format: cell-based; settings: Homo sapiens, compound in salt form
Description: as §1

[16] = tested on: WHCO5 oesophageal cancer cell line; assay: MTT assay for cell viability, IC50 determination; format: cell-based, human; settings: Homo sapiens, compound in salt form
Description: as §1

IC50 ([3]; 48 h, 48 hours, MTT) | IC50 ([4]; 48 h, MTT) | IC50 ([3]; compound in salt form) | IC50 [9] | IC50 ([4]; compound in salt form) | IC50 [13] | IC50 [15] | IC50 [16] | Compound | IC50 (cancer cell lines) | cell proliferation [1] | NFAT activation (NFAT-luciferase reporter) [2] | IC50 [5] | PARP cleavage as an indicator of apoptosis [6] | nuclear import of Kpnβ1 cargo protein (percentage of nuclear p65 relative to cytoplasmic p65) [7] | IC50 [8] | IC50 [10] | IC50 [11] | IC50 [12] | IC50 [14]
14.4 µM | 11.4 µM |  |  |  |  |  |  | Cc1cccc(CN2CCOc3c(cc(-c4ccc(C)s4)cc3OCC3CCCN(C)C3)C2)n1 (stereo not shown) [Compound II, 9-[(1-methylpiperidin-3-yl)methoxy]-4-[(6-methylpyridin-2-yl)methyl]-7-(5-methylthiophen-2-yl)-3,5-dihydro-2H-1,4-benzoxazepine] | < 50 µM | inhibit cell proliferation | significantly diminished NFAT activation | 17.2 µM | induce cancer cell death via apoptosis | inhibit the nuclear import of Kpnβ1 cargo protein |  |  |  |  | 
19.9 µM | 34.1 µM |  |  |  |  |  |  | CNC(=O)[C@@H]1C[C@H](NCc2ccc(OC)c3ccccc23)CN1Cc1ccccc1 [Compound III, (2S,4S)-1-benzyl-4-{[(4-methoxynaphthalen-1-yl)methyl]amino}-N-methylpyrrolidine-2-carboxamide] | < 50 µM | inhibit cell proliferation | significantly diminished NFAT activation | 44.9 µM | induce cancer cell death via apoptosis | inhibit the nuclear import of Kpnβ1 cargo protein |  |  |  |  | 
 | 27.4 µM | 23.1 µM | 25.5 µM | 27.4 µM | 44.9 µM | 30 µM | 20.3 µM | CC(C)Cc1ccc(CNCc2cccnc2N2CCCN(C)CC2)s1 [Compound XII, 1-(5-isobutyl-2-thienyl)-N-[[2-(4-methyl-1,4-diazepan-1-yl)-3-pyridyl]methyl]methanamine] |  |  |  |  |  |  | 57 µM | 34.1 µM | 31.3 µM | 41.6 µM | 33.8 µM
 | 39.5 µM | 53.6 µM | 98.4 µM | 39.5 µM | 44.5 µM | 33 µM | 40.1 µM | Cc1ccc(OC[C@@H](O)CNCc2ccc3c(c2)OCO3)cc1C [Compound XIII, 1-(benzo[1,3]dioxol-5-ylmethylamino)-3-(3,4-dimethylphenoxy)-propan-2-ol] |  |  |  |  |  |  | 93 µM | 49.3 µM | 42.1 µM | 34.6 µM | 36.2 µM
